According to paper PMC7555427, “Discovery of Icotinib-1,2,3-Triazole Derivatives as IDO1 Inhibitors” (Frontiers in Pharmacology, 2020):

Key:
IDO1 [1] = tested on: IDO1; set-up: method as in Nelp et al., 2018; conditions: previously reported; ref Nelp et al., 2018; cited from earlier work
IDO1 [2] = target: T1, IDO1 (Homo sapiens, UniProt P14902); assay: Hela cell-based IDO1 functional assay (kynurenine readout, IFN-γ induced); conditions: Hela cells, 100 ng/ml human IFN-γ, 18 h; Table 1 and text
T1 construct: host or cells: HeLa cells, IDO1 induced with 100 ng/ml human IFN-γ
T1 sequence (P14902 whole entry): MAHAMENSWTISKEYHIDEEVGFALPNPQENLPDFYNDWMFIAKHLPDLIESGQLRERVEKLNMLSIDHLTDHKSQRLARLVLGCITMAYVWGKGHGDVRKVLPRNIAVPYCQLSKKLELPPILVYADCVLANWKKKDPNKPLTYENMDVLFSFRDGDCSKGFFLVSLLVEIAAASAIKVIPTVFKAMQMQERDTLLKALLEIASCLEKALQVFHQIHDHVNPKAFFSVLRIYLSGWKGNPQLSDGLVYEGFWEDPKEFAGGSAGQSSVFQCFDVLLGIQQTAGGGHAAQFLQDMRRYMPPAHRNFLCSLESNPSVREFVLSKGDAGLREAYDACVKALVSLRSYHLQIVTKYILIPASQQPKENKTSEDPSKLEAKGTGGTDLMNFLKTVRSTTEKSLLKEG
Experimental: To perform the Hela cell based IDO1 assay, Hela cells were seeded at 50,000 cells per well into 96-well microplate in 100 μl of DMEM 10% fetal bovine serum 1% Penicillin-Streptomycin. Cells were incubated at 37°C and 5% CO2 overnight.
The next day 100 μl per well of diluted inhibitor in growth medium was added at a final concentration of 100 ng/ml human IFN-γ. Cells were incubated at 37°C in a CO2 incubator for 18 h. The next day 140 μl of medium was moved into a new 96-well plate and 20 μl of 3.05 N trichloroacetic acid (TCA) was added. The plate was incubated at 50°C for 30 min to hydrolyze N-formylkynurenine. The plate was then centrifuged at 2,500 rpm for 10 min to remove sediments. 100 μl of supernatant per well was transferred to another 96-well plate and mixed with 100 μl of 2% (w/v) 4-(Dimethylamino)benzaldehyde in acetic acid. The plate was incubated at room temperature for 10 min, the yellow color derived from kynurenine was recorded by measuring absorbance at 480 nm using a microplate reader (PerkinElmer, USA).
To investigate the IDO1 inhibition activities of the synthesized derivatives, all the new compounds and icotinib were screened via Hela cell-based functional assay using methods described in the literature ([Yue et al., 2009]; [Malachowski et al., 2016]; [Qian et al., 2016]).

[3] = tested on: Human renal epithelial cell (293T); assay: Cytotoxicity assay, Cell Counting Kit-8 (CCK8), 72 h; type: cell-based; conditions: HEK-293T, 293T cells, CCK-8, 72 h
Experimental: Cytotoxity of the chosen compounds was evaluated by the Cell Counting Kit-8 (CCK8, DOJINDO, Japan) assay. The cells were seeded at a density of 2,000 cells per well into 96-well microplate in 100 μl of growth medium. Cells were incubated at 37°C and 5% CO2 overnight. The next day, 100 μl per well of diluted inhibitor in growth medium was added with the final concentration from 0.1nM to 100 μM. The cells were treated with DMSO as control. A series of dilutions were made in 0.1% DMSO in assay medium so that the final concentration of DMSO was 0.1% in all the treatments. Cells were incubated at 37°C and 5% CO2 for 72 h. Then, 10 μl of CCK8 was added to each well. The plates were incubated at 37°C for 2 h, and the plates were recorded by measuring the absorbance at 450 nm with the reference wavelength of 630 nm using an EnVisionMultilabel Reader (PerkinElmer). The IC50 values were calculated and determined by the concentration causing a half-maximal percent activity. All assays were conducted with three parallel samples and three repetitions.
Next, several compounds with submicromolar level of IDO1 inhibitory activities were chosen for further study. Human renal epithelial cell (293T) was chosen for CCK-8 assay to evaluation the bioactivity of these compounds.

Q: Which IC50 (IDO1 [2]) does the source give for `COc1cccc(-n2cc(-c3cccc(Nc4ncnc5cc6c(cc45)OCCOCCOCCO6)c3)nn2)c1` [a9, (7,8,10,11,13,14-Hexahydro-6,9,12,15-tetraoxa-1,3-diaza-cyclododeca[b]naphthalen-4-yl)-{3-[1-(3-methoxy-phenyl)-1H-[1,2,3]triazol-4-yl]-phenyl}-amine] here?
A: 1.41 ± 0.08 µM

Q: Which IC50 (IDO1 [2]) does the source give for `Brc1ccc(-n2cc(-c3cccc(Nc4ncnc5cc6c(cc45)OCCOCCOCCO6)c3)nn2)cc1` [a10, {3-[1-(4-Bromo-phenyl)-1H-[1,2,3]triazol-4-yl]-phenyl}-(7,8,10,11,13,14-hexahydro-6,9,12,15-tetraoxa-1,3-diaza-cyclododeca[b]naphthalen-4-yl)-amine] here?
A: 2.79 ± 0.46 µM

Q: With `Fc1ccccc1Cn1cc(-c2cccc(Nc3ncnc4cc5c(cc34)OCCOCCOCCO5)c2)nn1` [a13, {3-[1-(2-Fluoro-benzyl)-1H-[1,2,3]triazol-4-yl]-phenyl}-(7,8,10,11,13,14-hexahydro-6,9,12,15-tetraoxa-1,3-diaza-cyclododeca[b]naphthalen-4-yl)-amine] as the compound, how does the IC50 (IDO1 [2]) read?
A: 4.62 ± 0.19 µM

Q: With `Ic1ccccc1Cn1cc(-c2cccc(Nc3ncnc4cc5c(cc34)OCCOCCOCCO5)c2)nn1` [a16, (7,8,10,11,13,14-Hexahydro-6,9,12,15-tetraoxa-1,3-diaza-cyclododeca[b]naphthalen-4-yl)-{3-[1-(2-iodo-benzyl)-1H-[1,2,3]triazol-4-yl]-phenyl}-amine] as the compound, how does the IC50 (IDO1 [2]) read?
A: 1.51 ± 0.11 µM

Q: For `C#Cc1cccc(Nc2ncnc3cc4c(cc23)OCCOCCOCCO4)c1` [icotinib], which IC50 (IDO1 [2]) is on record?
A: 2.57 ± 0.44 µM

Q: What does the source list for `Clc1cccc(-n2cc(-c3cccc(Nc4ncnc5cc6c(cc45)OCCOCCOCCO6)c3)nn2)c1` [a7, {3-[1-(3-Chloro-phenyl)-1H-[1,2,3]triazol-4-yl]-phenyl}-(7,8,10,11,13,14-hexahydro-6,9,12,15-tetraoxa-1,3-diaza-cyclododeca[b]naphthalen-4-yl)-amine]?
A: IC50 [3]: 3.1 ± 0.2 µM; IC50 (IDO1 [2]): 2.82 ± 0.26 µM

Q: With `Brc1cccc(Cn2cc(-c3cccc(Nc4ncnc5cc6c(cc45)OCCOCCOCCO6)c3)nn2)c1` [a17, {3-[1-(3-Bromo-benzyl)-1H-[1,2,3]triazol-4-yl]-phenyl}-(7,8,10,11,13,14-hexahydro-6,9,12,15-tetraoxa-1,3-diaza-cyclododeca[b]naphthalen-4-yl)-amine] as the compound, how does the IC50 [3] read?
A: 3.1 ± 0.2 µM

Q: What about the IC50 (IDO1 [2]) of the same compound?
A: 0.37 ± 0.02 µM

Q: Which IC50 (IDO1 [2]) does the source give for `Fc1cccc(-n2cc(-c3cccc(Nc4ncnc5cc6c(cc45)OCCOCCOCCO6)c3)nn2)c1` [a1, {3-[1-(3-Fluoro-phenyl)-1H-[1,2,3]triazol-4-yl]-phenyl}-(7,8,10,11,13,14-hexahydro-6,9,12,15-tetraoxa-1,3-diaza-cyclododeca[b]naphthalen-4-yl)-amine] here?
A: 4.25 ± 0.08 µM

Q: For `Clc1ccc(-n2cc(-c3cccc(Nc4ncnc5cc6c(cc45)OCCOCCOCCO6)c3)nn2)cc1` [a2, {3-[1-(4-Chloro-phenyl)-1H-[1,2,3]triazol-4-yl]-phenyl}-(7,8,10,11,13,14-hexahydro-6,9,12,15-tetraoxa-1,3-diaza-cyclododeca[b]naphthalen-4-yl)-amine], which IC50 (IDO1 [2]) is on record?
A: 2.9 ± 0.37 µM

Q: For `Fc1ccc(-n2cc(-c3cccc(Nc4ncnc5cc6c(cc45)OCCOCCOCCO6)c3)nn2)cc1` [a3, {3-[1-(4-Fluoro-phenyl)-1H-[1,2,3]triazol-4-yl]-phenyl}-(7,8,10,11,13,14-hexahydro-6,9,12,15-tetraoxa-1,3-diaza-cyclododeca[b]naphthalen-4-yl)-amine], which IC50 (IDO1 [2]) is on record?
A: 18.2 ± 1.47 µM

Q: What does the source list for `Cc1ccc(Cn2cc(-c3cccc(Nc4ncnc5cc6c(cc45)OCCOCCOCCO6)c3)nn2)cc1` [a15, (7,8,10,11,13,14-Hexahydro-6,9,12,15-tetraoxa-1,3-diaza-cyclododeca[b]naphthalen-4-yl)-{3-[1-(4-methyl-benzyl)-1H-[1,2,3]triazol-4-yl]-phenyl}-amine]?
A: IC50 [3]: 0.16 ± 0.05 µM; IC50 (IDO1 [2]): 0.59 ± 0.05 µM

Q: Which results are given for `c1ccc(Cn2cc(-c3cccc(Nc4ncnc5cc6c(cc45)OCCOCCOCCO6)c3)nn2)cc1` [a18, [3-(1-Benzyl-1H-[1,2,3]triazol-4-yl)-phenyl]-(7,8,10,11,13,14-hexahydro-6,9,12,15-tetraoxa-1,3-diaza-cyclododeca[b]naphthalen-4-yl)-amine]?
A: IC50 [3]: 3.08 ± 0.59 µM; IC50 (IDO1 [2]): 0.56 ± 0.16 µM

Q: Which results are given for `Brc1cc(Br)cc(Cn2cc(-c3cccc(Nc4ncnc5cc6c(cc45)OCCOCCOCCO6)c3)nn2)c1` [a21, {3-[1-(3,5-Dibromo-benzyl)-1H-[1,2,3]triazol-4-yl]-phenyl}-(7,8,10,11,13,14-hexahydro-6,9,12,15-tetraoxa-1,3-diaza-cyclododeca[b]naphthalen-4-yl)-amine]?
A: IC50 [3]: 0.74 ± 0.15 µM; IC50 (IDO1 [2]): 0.68 ± 0.44 µM

Q: Which IC50 (IDO1 [2]) does the source give for `Brc1ccccc1Cn1cc(-c2cccc(Nc3ncnc4cc5c(cc34)OCCOCCOCCO5)c2)nn1` [a19, {3-[1-(2-Bromo-benzyl)-1H-[1,2,3]triazol-4-yl]-phenyl}-(7,8,10,11,13,14-hexahydro-6,9,12,15-tetraoxa-1,3-diaza-cyclododeca[b]naphthalen-4-yl)-amine] here?
A: 1.5 ± 0.45 µM

Q: For `Brc1ccccc1-n1cc(-c2cccc(Nc3ncnc4cc5c(cc34)OCCOCCOCCO5)c2)nn1` [a11, {3-[1-(2-Bromo-phenyl)-1H-[1,2,3]triazol-4-yl]-phenyl}-(7,8,10,11,13,14-hexahydro-6,9,12,15-tetraoxa-1,3-diaza-cyclododeca[b]naphthalen-4-yl)-amine], which IC50 (IDO1 [2]) is on record?
A: 1 ± 0.49 µM

Q: Which IC50 (IDO1 [2]) does the source give for `FC(F)(F)c1ccc(-n2cc(-c3cccc(Nc4ncnc5cc6c(cc45)OCCOCCOCCO6)c3)nn2)cc1` [a12, (7,8,10,11,13,14-Hexahydro-6,9,12,15-tetraoxa-1,3-diaza-cyclododeca[b]naphthalen-4-yl)-{3-[1-(4-trifluoromethyl-phenyl)-1H-[1,2,3]triazol-4-yl]-phenyl}-amine] here?
A: > 100 µM

Q: For `COc1ccccc1-n1cc(-c2cccc(Nc3ncnc4cc5c(cc34)OCCOCCOCCO5)c2)nn1` [a4, (7,8,10,11,13,14-Hexahydro-6,9,12,15-tetraoxa-1,3-diaza-cyclododeca[b]naphthalen-4-yl)-{3-[1-(2-methoxy-phenyl)-1H-[1,2,3]triazol-4-yl]-phenyl}-amine], which IC50 (IDO1 [2]) is on record?
A: 1.32 ± 0.17 µM

Q: With `COc1cccc(Cn2cc(-c3cccc(Nc4ncnc5cc6c(cc45)OCCOCCOCCO6)c3)nn2)c1` [a20, (7,8,10,11,13,14-Hexahydro-6,9,12,15-tetraoxa-1,3-diaza-cyclododeca[b]naphthalen-4-yl)-{3-[1-(3-methoxy-benzyl)-1H-[1,2,3]triazol-4-yl]-phenyl}-amine] as the compound, how does the IC50 [3] read?
A: 3.3 ± 1.3 µM

Q: What about the IC50 (IDO1 [2]) of the same compound?
A: 0.76 ± 0.07 µM

Q: Which IC50 (IDO1 [2]) does the source give for `Ic1ccccc1-n1cc(-c2cccc(Nc3ncnc4cc5c(cc34)OCCOCCOCCO5)c2)nn1` [a8, (7,8,10,11,13,14-Hexahydro-6,9,12,15-tetraoxa-1,3-diaza-cyclododeca[b]naphthalen-4-yl)-{3-[1-(2-iodo-phenyl)-1H-[1,2,3]triazol-4-yl]-phenyl}-amine] here?
A: 2.5 ± 0.43 µM

Q: What does the source list for `Cc1ccccc1Cn1cc(-c2cccc(Nc3ncnc4cc5c(cc34)OCCOCCOCCO5)c2)nn1` [a14, (7,8,10,11,13,14-Hexahydro-6,9,12,15-tetraoxa-1,3-diaza-cyclododeca[b]naphthalen-4-yl)-{3-[1-(2-methyl-benzyl)-1H-[1,2,3]triazol-4-yl]-phenyl}-amine]?
A: IC50 [3]: 3.35 ± 0.89 µM; IC50 (IDO1 [2]): 0.79 ± 0.21 µM

Q: Which IC50 [3] does the source give for `Fc1ccc(CCn2cc(-c3cccc(Nc4ncnc5cc6c(cc45)OCCOCCOCCO6)c3)nn2)cc1` [a22, (3-{1-[2-(4-Fluoro-phenyl)-ethyl]-1H-[1,2,3]triazol-4-yl}-phenyl)-(7,8,10,11,13,14-hexahydro-6,9,12,15-tetraoxa-1,3-diaza-cyclododeca[b]naphthalen-4-yl)-amine] here?
A: 2.6 ± 0.17 µM

Q: And the IC50 (IDO1 [2])?
A: 0.81 ± 0.35 µM

Q: Which IC50 (IDO1 [2]) does the source give for `Clc1ccccc1-n1cc(-c2cccc(Nc3ncnc4cc5c(cc34)OCCOCCOCCO5)c2)nn1` [a5, {3-[1-(2-Chloro-phenyl)-1H-[1,2,3]triazol-4-yl]-phenyl}-(7,8,10,11,13,14-hexahydro-6,9,12,15-tetraoxa-1,3-diaza-cyclododeca[b]naphthalen-4-yl)-amine] here?
A: 4.88 ± 0.42 µM

Q: What does the source list for `c1ccc(-n2cc(-c3cccc(Nc4ncnc5cc6c(cc45)OCCOCCOCCO6)c3)nn2)cc1` [a6, (7,8,10,11,13,14-Hexahydro-6,9,12,15-tetraoxa-1,3-diaza-cyclododeca[b]naphthalen-4-yl)-[3-(1-phenyl-1H-[1,2,3]triazol-4-yl)-phenyl]-amine]?
A: IC50 [3]: 42.8 ± 11.8 µM; IC50 (IDO1 [2]): 0.77 ± 0.13 µM
